Results on eleven molecules are retold here after patent US20250197374A1, “WEE1 DEGRADING COMPOUNDS AND USES THEREOF” (BRISTOL-MYERS SQUIBB COMPANY, priority 2023, published 2025).

Type in all cases: cell-based
Assay [1] concerns the target T1, WEE1 (Homo sapiens, UniProt P30291+Q96SW2).
T1 construct: C-terminal ePL-tagged (DiscoverX, Fremont, CA) full-length WEE1 expression construct; expressed in transfected cells; host or cells: LentiX-HEK293T (Invitrogen), lentivirally transduced; the cells also over-express GSPT1-GN
As to the kind of experiment: WEE1-ePL degradation assay (293T-LentiX, InCELL Hunter luminescence, 4 hr). Conditions: for 293T-LentiX WEE1-ePL Degradation 4 hr YMin (%): lower limit of fit, % of DMSO control signal remaining; for DC50: LentiX-HEK293T cells expressing WEE1-ePL, 4 hr incubation, read-out: 293T-LentiX WEE1-ePL Degradation 4 hr EC50. The method in brief:
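EC50 comes from a four-parameter logistic fit of ePL luminescence (InCELL Hunter), with DMSO control defining Ymax. Compounds ran as 10-point 3-fold dilutions from 1 or 10 µM for 4 h at 37 °C. Cells were HEK293T-LentiX with ePL-tagged full-length WEE1 and over-expressed Cereblon-resistant GSPT1-GN.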

The subject of assay [2] is MKN45 cells. As to the kind of experiment: MKN45 cell proliferation assay (Cell-Titer-Glo, 120 hr). The settings on record: for MKN45 Cell Prolif. 120 hr YMin (%): minimal percent of DMSO control observed; for EC50: Homo sapiens, MKN-45, 120 h, read-out: MKN45 Cell Prolif. 120 hr EC50. The text has this:
(§1) MKN45 cells were obtained from Celgene internal cell banks and cultured in RPMI complete media (RPMI-1640, 1× Penicillin/Streptomycin, 1× glutamine, 1× Sodium Pyruvate, Non-essential Amino Acids, 10% Fetal Bovine serum, all component from Thermo-Fisher). MDA-MB-231 cells were obtained from the ATCC (HTB-26) and cultured in RPMI-1640 and 10% Fetal Bovine serum; MDA-MB-231 cells were expanded and stored as aliquots in liquid nitrogen in Celgene internal cell banks. Compounds were dispensed into 384-well plates using an HP DE300 compound printer in triplicate with 8 compounds on each plate. Compounds were dispensed into 384-well black clear bottom plates (Corning #3764BC) using an EDC acoustic dispenser at BMS. For each compound, a 10-point dose response was printed at half-log dilutions starting at either 1 uM or 10 uM in triplicate for MKN45 cells and in duplicate for MDA-MB-231 cells. The DMSO concentration was kept constant for a final assay concentration of 0.1% per well assuming 50 ul final media volume. Compound plates were sealed and frozen at −20 C until use.
(§2) For each assay batch, compound plates were thawed and allowed to reach room temperature, and cells were seeded at 400 MKN45 cells per well, or 800 MDA-MB-231 cells per well, in 50 ul media listed above for each cell line. After 120 hours of incubation at 37 C and 5% CO2, cells were lysed by addition of 25 μL of Cell-Titer-Glo Reagent (Promega Corporation, Madison, WI), as per manufacturer's instructions, protected from light, shaken for 45 minutes, and total luminescence read by a Perkin Elmer Envision plate reader. Total luminescence signal is linearly correlated with cell number remaining in the well.
(§3) Luminescence data was processed per plate by subtracting reagent-only “blank” well luminescence from all measured values and calculating a percent of DMSO control value for each treatment well. Then, to determine the half-maximal effective concentration (EC50) values for cell growth inhibition, a four parameter logistic model was fit to the data for each DMSO-normalized compound: Sigmoidal Dose-Response Model: (FIT=(A+((B−A)/1+((C/x)^D)))) where C is the inflection point ([…]), D is the Hill slope, and A and B are the low and high limits of the fit respectively. The lower limit of the fit (value A) is referred to as Ymin-calculated. The minimal percent of DMSO control that is observed in the concentrations tested for each compound is labeled as “Ymin-obs”, and was recorded and reported in the tables. Sigmoidal fit curves were processed and evaluated using Activity Base (IDBS, Alameda, CA) or using Dotmatics (Boston, MA). N/A=not available at the present time.

Assay [3] relates to MDA-MB-231 cells. As to the kind of experiment: MDA-MB-231 cell proliferation assay (Cell-Titer-Glo, 120 hr). The settings on record: for EC50: Homo sapiens, MDA-MB-231, 120 h, read-out: MDA-MB 231 Cell Prolif. 120 hr EC50; for MDA-MB 231 Cell Prolif. 120 hr YMin (%): minimal percent of DMSO control observed.
Description: as §1, §2, §3

As usually defined, the EC50 is the concentration that produces a half-maximal response.

T1 sequence (P30291 whole entry): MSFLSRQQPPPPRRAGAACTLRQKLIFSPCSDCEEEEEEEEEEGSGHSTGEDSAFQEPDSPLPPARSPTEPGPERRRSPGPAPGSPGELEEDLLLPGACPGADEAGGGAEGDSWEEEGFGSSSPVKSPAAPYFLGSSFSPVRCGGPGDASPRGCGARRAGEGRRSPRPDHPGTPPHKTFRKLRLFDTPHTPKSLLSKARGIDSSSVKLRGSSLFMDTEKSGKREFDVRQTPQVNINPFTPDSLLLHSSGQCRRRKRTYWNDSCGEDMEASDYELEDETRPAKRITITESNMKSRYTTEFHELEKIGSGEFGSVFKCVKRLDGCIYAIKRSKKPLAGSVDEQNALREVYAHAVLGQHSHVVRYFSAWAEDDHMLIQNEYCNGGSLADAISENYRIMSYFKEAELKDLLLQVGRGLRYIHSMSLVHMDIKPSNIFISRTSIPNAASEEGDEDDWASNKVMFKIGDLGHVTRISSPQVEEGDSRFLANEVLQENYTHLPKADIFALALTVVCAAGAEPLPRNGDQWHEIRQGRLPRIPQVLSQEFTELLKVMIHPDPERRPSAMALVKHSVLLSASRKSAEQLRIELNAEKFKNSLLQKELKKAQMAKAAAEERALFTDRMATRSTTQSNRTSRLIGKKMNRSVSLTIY
T1 sequence (Q96SW2 whole entry): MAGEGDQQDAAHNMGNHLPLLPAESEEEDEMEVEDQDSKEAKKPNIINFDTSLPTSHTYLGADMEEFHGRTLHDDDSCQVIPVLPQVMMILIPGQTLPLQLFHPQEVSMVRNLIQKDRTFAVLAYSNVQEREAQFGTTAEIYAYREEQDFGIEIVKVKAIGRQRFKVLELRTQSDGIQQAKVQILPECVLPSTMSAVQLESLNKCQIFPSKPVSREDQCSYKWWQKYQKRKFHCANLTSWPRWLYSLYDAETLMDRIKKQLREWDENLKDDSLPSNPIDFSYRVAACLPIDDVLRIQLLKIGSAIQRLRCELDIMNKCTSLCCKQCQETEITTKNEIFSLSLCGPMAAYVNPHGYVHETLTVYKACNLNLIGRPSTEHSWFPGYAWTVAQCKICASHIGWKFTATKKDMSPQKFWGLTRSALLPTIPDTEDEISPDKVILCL
T1 sequence (Q16531 whole entry partner): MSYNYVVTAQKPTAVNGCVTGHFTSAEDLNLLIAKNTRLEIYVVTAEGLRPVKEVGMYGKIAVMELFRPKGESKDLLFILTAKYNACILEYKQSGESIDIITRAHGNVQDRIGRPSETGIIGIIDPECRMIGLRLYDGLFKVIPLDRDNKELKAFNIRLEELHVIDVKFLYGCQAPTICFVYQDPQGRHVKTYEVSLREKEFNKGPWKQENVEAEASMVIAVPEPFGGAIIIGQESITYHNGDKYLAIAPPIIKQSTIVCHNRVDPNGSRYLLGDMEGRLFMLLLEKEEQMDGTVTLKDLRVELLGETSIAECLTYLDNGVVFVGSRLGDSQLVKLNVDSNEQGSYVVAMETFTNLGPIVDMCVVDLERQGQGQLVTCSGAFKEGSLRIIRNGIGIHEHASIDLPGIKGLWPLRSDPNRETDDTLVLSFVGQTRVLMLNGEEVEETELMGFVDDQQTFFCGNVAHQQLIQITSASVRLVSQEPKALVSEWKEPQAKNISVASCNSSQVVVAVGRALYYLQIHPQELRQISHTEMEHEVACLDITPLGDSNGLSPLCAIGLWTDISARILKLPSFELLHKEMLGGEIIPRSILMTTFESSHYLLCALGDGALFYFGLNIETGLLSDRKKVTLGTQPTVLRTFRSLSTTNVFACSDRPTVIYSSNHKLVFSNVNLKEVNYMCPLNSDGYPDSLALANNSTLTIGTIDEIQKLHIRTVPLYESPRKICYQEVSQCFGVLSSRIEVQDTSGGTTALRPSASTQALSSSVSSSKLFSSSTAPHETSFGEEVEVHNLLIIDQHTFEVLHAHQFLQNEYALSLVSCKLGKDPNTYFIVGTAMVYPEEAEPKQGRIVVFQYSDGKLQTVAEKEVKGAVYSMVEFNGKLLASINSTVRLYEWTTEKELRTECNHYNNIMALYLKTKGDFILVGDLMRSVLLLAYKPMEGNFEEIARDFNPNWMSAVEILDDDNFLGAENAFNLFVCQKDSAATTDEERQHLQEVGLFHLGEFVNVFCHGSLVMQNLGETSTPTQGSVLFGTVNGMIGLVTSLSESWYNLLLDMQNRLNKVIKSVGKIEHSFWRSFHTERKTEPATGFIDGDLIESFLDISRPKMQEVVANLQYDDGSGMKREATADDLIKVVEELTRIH

Take `COC[C@@H]1CN(Cc2cc(F)c3nc(C4CCC(O)CC4)ccc3c2)C[C@H]1Oc1ccc2c(c1)CN([C@H]1CCC(=O)NC1=O)C2=O` (relative stereo) [Example 54, rel-(S)-3-(5-(((3S,4S)-1-((8-fluoro-2-(4-hydroxycyclohexyl)quinolin-6-yl)methyl)-4-(methoxymethyl)pyrrolidin-3-yl)oxy)-1-oxoisoindolin-2-yl)piperidine-2,6-dione]: the “293T-LentiX WEE1-ePL Degradation 4 hr YMin (%)” value in assay [1] turned out to be 31.2%. Also, the “MKN45 Cell Prolif. 120 hr YMin (%)” value in assay [2] turned out to be 10.5%. Besides, in assay [3], the EC50 worked out at 9 nM and the “MDA-MB 231 Cell Prolif. 120 hr YMin (%)” value turned out to be 48.9%.
In the same order, the values of `COC[C@@H]1CN(Cc2cc(F)c3nc(C4CCC(C(C)(C)O)CC4)ccc3c2)C[C@H]1Oc1ccc2c(c1)CN([C@H]1CCC(=O)NC1=O)C2=O` (relative stereo) [Example 57, rel-(S)-3-(5-(((3S,4S)-1-((8-fluoro-2-(4-(2-hydroxypropan-2-yl)cyclohexyl)quinolin-6-yl)methyl)-4-(methoxymethyl)pyrrolidin-3-yl)oxy)-1-oxoisoindolin-2-yl)piperidine-2,6-dione] are 30.3%, 8.0%, 11 nM and 13.2%.
For the molecule `COC[C@@H]1CN(Cc2cc(F)c3nc(C4CCCO4)ccc3c2)C[C@H]1Oc1ccc2c(c1)CN(C1CCC(=O)NC1=O)C2=O` (relative stereo) [Example 65, rel-(3S)-3-(5-(((3S,4S)-1-((8-fluoro-2-(tetrahydrofuran-2-yl)quinolin-6-yl)methyl)-4-(methoxymethyl)pyrrolidin-3-yl)oxy)-1-oxoisoindolin-2-yl)piperidine-2,6-dione], in assay [1], the DC50 stood at 1 nM and the “293T-LentiX WEE1-ePL Degradation 4 hr YMin (%)” value worked out at 27.3%. In addition, in assay [2], the EC50 was 2 nM and the “MKN45 Cell Prolif. 120 hr YMin (%)” value is given as 8.1%. Also, the “MDA-MB 231 Cell Prolif. 120 hr YMin (%)” value in assay [3] was found to be 94.2%.
On to `COC[C@@H]1CN(Cc2cc(F)c3nc(C4CCCN4C)ccc3c2)C[C@H]1Oc1ccc2c(c1)CN([C@H]1CCC(=O)NC1=O)C2=O` (relative stereo) [Example 66, rel-(3S)-3-(5-(((3S,4S)-1-((8-fluoro-2-(1-methylpyrrolidin-2-yl)quinolin-6-yl)methyl)-4-(methoxymethyl)pyrrolidin-3-yl)oxy)-1-oxoisoindolin-2-yl)piperidine-2,6-dione], for which, in assay [1], the DC50 stood at 3 nM and the “293T-LentiX WEE1-ePL Degradation 4 hr YMin (%)” value is reported as 32.7%. For the same molecule, in assay [2], the EC50 was determined as 5 nM and the “MKN45 Cell Prolif. 120 hr YMin (%)” value is 13.9%. Besides, in assay [3], the EC50 came to 107 nM and the “MDA-MB 231 Cell Prolif. 120 hr YMin (%)” value is 57.1%.
In the case of `COC[C@@H]1CN(Cc2cc(F)c3nc(C4CCN(C(C)=O)C4)ccc3c2)C[C@H]1Oc1ccc2c(c1)CN([C@H]1CCC(=O)NC1=O)C2=O` (relative stereo) [Example 67, rel-(3S)-3-(5-(((3S,4S)-1-((2-(1-acetylpyrrolidin-3-yl)-8-fluoroquinolin-6-yl)methyl)-4-(methoxymethyl)pyrrolidin-3-yl)oxy)-1-oxoisoindolin-2-yl)piperidine-2,6-dione], in assay [1], the DC50 came to 1 nM and the “293T-LentiX WEE1-ePL Degradation 4 hr YMin (%)” value is listed as 29.6%. For the same molecule, in assay [2], the concentration for a half-maximal effect (EC50) came to 1 nM and the “MKN45 Cell Prolif. 120 hr YMin (%)” value amounted to 12.3%. Also, in assay [3], the EC50 came out at 28 nM and the “MDA-MB 231 Cell Prolif. 120 hr YMin (%)” value is on record as 37.7%.
For the molecule `COC[C@@H]1CN(Cc2cc(F)c3nc(C4CCN(CC(F)(F)F)C4)ccc3c2)C[C@H]1Oc1ccc2c(c1)CN([C@H]1CCC(=O)NC1=O)C2=O` (relative stereo) [Example 68, rel-(3S)-3-(5-(((3S,4S)-1-((8-fluoro-2-(1-(2,2,2-trifluoroethyl)pyrrolidin-3-yl)quinolin-6-yl)methyl)-4-(methoxymethyl)pyrrolidin-3-yl)oxy)-1-oxoisoindolin-2-yl)piperidine-2,6-dione], in assay [1], the DC50 is 2 nM and the “293T-LentiX WEE1-ePL Degradation 4 hr YMin (%)” value is 26.4%. In addition, in assay [2], the EC50 was determined as 1 nM and the “MKN45 Cell Prolif. 120 hr YMin (%)” value was 8.9%. In assay [3], the EC50 stood at 14 nM and the “MDA-MB 231 Cell Prolif. 120 hr YMin (%)” value came out at 17.4%.
In the case of `COC[C@@H]1CN(Cc2cc(F)c3nc(C4CCCCO4)ccc3c2)C[C@H]1Oc1ccc2c(c1)CN([C@H]1CCC(=O)NC1=O)C2=O` (relative stereo) [Example 69, rel-(3S)-3-(5-{[(3S,4S)-1-{[8-fluoro-2-(oxan-2-yl)quinolin-6-yl]methyl}-4-(methoxymethyl)pyrrolidin-3-yl]oxy}-1-oxo-2,3-dihydro-1H-isoindol-2-yl)piperidine-2,6-dione], the “293T-LentiX WEE1-ePL Degradation 4 hr YMin (%)” value in assay [1] was 27.7%. Further, in assay [2], the EC50 turned out to be 1 nM and the “MKN45 Cell Prolif. 120 hr YMin (%)” value was 8.6%. Also, in assay [3], the EC50 amounted to 9 nM and the “MDA-MB 231 Cell Prolif. 120 hr YMin (%)” value was determined as 20.5%.
As to `COC[C@@H]1CN(Cc2cc(F)c3nc(C4CCCOC4)ccc3c2)C[C@H]1Oc1ccc2c(c1)CN([C@H]1CCC(=O)NC1=O)C2=O` (relative stereo) [Example 70, rel-(3S)-3-(5-{[(3S,4S)-1-{[8-fluoro-2-(oxan-3-yl)quinolin-6-yl]methyl}-4-(methoxymethyl)pyrrolidin-3-yl]oxy}-1-oxo-2,3-dihydro-1H-isoindol-2-yl)piperidine-2,6-dione], in assay [1], the DC50 was 1 nM and the “293T-LentiX WEE1-ePL Degradation 4 hr YMin (%)” value came to 28.9%. Also, in assay [2], the EC50 came out at 1 nM and the “MKN45 Cell Prolif. 120 hr YMin (%)” value is recorded as 11.9%. Moreover, in assay [3], the EC50 was determined as 18 nM and the “MDA-MB 231 Cell Prolif. 120 hr YMin (%)” value is reported as 26.1%.
As for `COC[C@@H]1CN(Cc2cc(F)c3nc(C4CCCN4C)ncc3c2)C[C@H]1Oc1ccc2c(c1)CN([C@H]1CCC(=O)NC1=O)C2=O` (relative stereo) [Example 77, rel-(3S)-3-(5-{[(3S,4S)-1-{[8-fluoro-2-(1-methylpyrrolidin-2-yl)quinazolin-6-yl]methyl}-4-(methoxymethyl)pyrrolidin-3-yl]oxy}-1-oxo-2,3-dihydro-1H-isoindol-2-yl)piperidine-2,6-dione], in assay [1], the DC50 is 23 nM and the “293T-LentiX WEE1-ePL Degradation 4 hr YMin (%)” value is 25.5%. Further, in assay [2], the EC50 was found to be 43 nM and the “MKN45 Cell Prolif. 120 hr YMin (%)” value was found to be 13.1%. Further, in assay [3], the EC50 worked out at 332 nM and the “MDA-MB 231 Cell Prolif. 120 hr YMin (%)” value turned out to be 80.1%.
Turning to `COC[C@@H]1CN(Cc2cc(F)c3nc(C4CCCOC4)ncc3c2)C[C@H]1Oc1ccc2c(c1)CN([C@H]1CCC(=O)NC1=O)C2=O` (relative stereo) [Example 78, rel-(3S)-3-(5-{[(3S,4S)-1-{[8-fluoro-2-(oxan-3-yl)quinazolin-6-yl]methyl}-4-(methoxymethyl)pyrrolidin-3-yl]oxy}-1-oxo-2,3-dihydro-1H-isoindol-2-yl)piperidine-2,6-dione], in assay [1], the DC50 amounted to 3 nM and the “293T-LentiX WEE1-ePL Degradation 4 hr YMin (%)” value stood at 27.1%. For the same molecule, in assay [2], the EC50 came out at 4 nM and the “MKN45 Cell Prolif. 120 hr YMin (%)” value is on record as 7.7%. In assay [3], the EC50 was 27 nM and the “MDA-MB 231 Cell Prolif. 120 hr YMin (%)” value turned out to be 22.5%.
In the case of `COC[C@@H]1CN(Cc2cc(F)c3nc(C4CCCCO4)ncc3c2)C[C@H]1Oc1ccc2c(c1)CN([C@H]1CCC(=O)NC1=O)C2=O` (relative stereo) [Example 96, rel-(3S)-3-(5-{[(3S,4S)-1-{[8-fluoro-2-(oxan-2-yl)quinazolin-6-yl]methyl}-4-(methoxymethyl)pyrrolidin-3-yl]oxy}-1-oxo-2,3-dihydro-1H-isoindol-2-yl)piperidine-2,6-dione], in assay [1], the DC50 came to 7 nM and the “293T-LentiX WEE1-ePL Degradation 4 hr YMin (%)” value amounted to 29.4%. In addition, in assay [2], the EC50 came out at 9 nM and the “MKN45 Cell Prolif. 120 hr YMin (%)” value was found to be 11.4%. In assay [3], the EC50 is 123 nM and the “MDA-MB 231 Cell Prolif. 120 hr YMin (%)” value came to 28.4%.
